Test results taken from patent US8604053B2, “TRPV1 antagonists” (AbbVie Inc., priority 2008, dated 2013).

Key:
[1] = biological target: T1, human TRPV1 receptor (hTRPV1) (Homo sapiens, UniProt Q8NER1); experiment: Capsaicin activation assay (Ca2+ influx, FLIPR); type: cell-based; conditions: hTRPV1 in 1321N1 cells, 0.05 μM capsaicin
T1 construct: expressed in transfected cells
Description: Dulbecco's modified Eagle medium (D-MEM) (with 4.5 mg/mL glucose) and fetal bovine serum were obtained from Hyclone Laboratories, Inc. (Logan, Utah). Dulbecco's phosphate-buffered saline (D-PBS) (with 1 mg/mL glucose and 3.6 mg/l Na pyruvate, without phenol red), L-glutamine, hygromycin B, and Lipofectamine® were obtained from Life Technologies (Grand Island, N.Y.). G418 sulfate was obtained from Calbiochem-Novabiochem Corp. (San Diego, Calif.). Capsaicin (8-methyl-N-vanillyl-6-nonenamide) was obtained from Sigma-Aldrich, Co. (St. Louis, Mo.). Fluo-4 AM (N-[4-[6-[(acetyloxy)methoxy]-2,7-difluoro-3-oxo-3H-xanthen-9-yl]-2-[2-[2-[bis[2-[(acetyloxy)methoxy]-2-oxyethyl]amino]-5-methyl-phenoxy[ethoxy]phenyl]-N-[2-[(acetyloxy)methoxy]-2-oxyethyl]-glycine, (acetyloxy)methyl ester) was purchased from Molecular Probes (Eugene, Oreg.).
The cDNAs for the human TRPV1 receptor (hTRPV1) were isolated by reverse transcriptase-polymerase chain reaction (RT-PCR) from human small intestine poly A+ RNA supplied by Clontech (Palo Alto, Calif.) using primers designed surrounding the initiation and termination codons identical to the published sequences (Hayes et al. Pain 2000, 88, 205-215). The resulting cDNA PCR products were subcloned into pClneo mammalian expression vector (Promega) and fully sequenced using fluorescent dye-terminator reagents (Prism, Perkin-Elmer Applied Biosystems Division) and a Perkin-Elmer Applied Biosystems Model 373 DNA sequencer or Model 310 genetic analyzer. Expression plasmids encoding the hTRPV1 cDNA were transfected individually into 1321N1 human astrocytoma cells using Lipofectamine®. Forty-eight hours after transfection, the neomycin-resistant cells were selected with growth medium containing 800 μg/mL Geneticin (Gibco BRL). Surviving individual colonies were isolated and screened for TRPV1 receptor activity. Cells expressing recombinant homomeric TRPV1 receptors were maintained at 37° C. in D-MEM containing 4 mM L-glutamine, 300 μg/mL G418 (Cal-biochem) and 10% fetal bovine serum under a humidified 5% CO2 atmosphere.
The functional activity of compounds at the TRPV1 receptor was determined with a Ca^2+ influx assay and measurement of intracellular Ca^2+ levels ([Ca^2+]i). All compounds were tested over an 11-point half-log concentration range. Compound solutions were prepared in D-PBS (4× final concentration), and diluted serially across 96-well v-bottom tissue culture plates using a Biomek 2000 robotic automation workstation (Beckman-Coulter, Inc., Fullerton, Calif.). A 0.2 μM solution of the TRPV1 agonist capsaicin was also prepared in D-PBS. The fluorescent Ca^2+ chelating dye Fluo-4 AM was used as an indicator of the relative levels of [Ca^2+]i in a 96-well format using a Fluorescence Imaging Plate Reader (FLIPR)(Molecular Devices, Sunnyvale, Calif.). Cells were grown to confluency in 96-well black-walled tissue culture plates. Then, prior to the assay, the cells were loaded with 100 μL per well of Fluo-4 AM (2 μM, in D-PBS) for 1-2 hours at 23° C. Washing of the cells was performed to remove extracellular Fluo-4 AM (2×1 mL D-PBS per well), and afterward, the cells were placed in the reading chamber of the FLIPR instrument. 50 μL of the compound solutions were added to the cells at the 10 second time mark of the experimental run. Then, after a 3-minute time delay, 50 μL of the capsaicin solution was added at the, 190 second time mark (0.05 μM final concentration)(final volume=200 μL) to challenge the TRPV1 receptor. Time length of the experimental run was 240 seconds. Fluorescence readings were made at 1 to 5 second intervals over the course of the experimental run. The peak increase in relative fluorescence units (minus baseline) was calculated from the 190 second time mark to the end of the experimental run, and expressed as a percentage of the 0.05 μM capsaicin (control) response. […]

[2] = Rat telemetry protocol, core body temperature; type: in vivo; conditions: core body temperature of rats one hour post dosing, 100 μmol/kg p.o., relative to vehicle
Description: Male, Sprague Dawley rats, 225-250 grams were anesthetized with Sevoflurane (Abbott Laboratories). Rats were placed on a heating pad and covered with a sterile surgical drape. A ventral midline abdominal incision was made and sterile cotton tip applicators were used to gently move internal tissue and expose the abdominal aorta for implantation of the telemetry catheter (Data Sciences International; TL11M2-050-PXT). Blood flow was temporarily stopped to the lower extremities (5-7 min) with Diffenbach clamps to allow the insertion of the telemetry catheter into the abdominal aorta. Once inserted, a sterile cellulose patch was placed over the catheter/aorta and secured using a small amount of tissue adhesive (Vetbond, 3M). Once catheter placement was complete, the clamps were removed and blood flow was restored to the lower extremities. Thetransmitter was placed in the intraperitoneal cavity. The transmitter suture rib was sewn into the abdominal sutures to secure it in place. The skin was closed using sterile wound clips and the animal removed from Sevoflurane. Buprenex ([…] s.c.; Phoenix) was administered for post-operative analgesia. Animals were maintained on a heating pad until ambulatory, and then individually housed with food and water ad lib. Surgical staples were removed after 7-10 days post-implantation. Rats were allowed a 2-week post-surgical recovery period before treatment with test compound. Oral dosing (p.o.) was at time zero, with rats receiving a single dose of vehicle (10% EtOH, 20% Tween-80, 70% PEG-400) or a 100 μmol/kg dose of compound dissolved in vehicle. Temperature measurements were recorded every 15 minutes for the duration of the study (24 hours).
Representative compounds described herein have the novel property of having limited transient temperature effect on core body temperature of a mammal (e.g. rats). For example, compounds tested alter core body temperature of rats by less than about +0.5° C. at about 1 hour after administration of a single dose (100 μmol/kg) of the test compounds orally, for example, in the range from about −2.5° C. to less than about +0.5° C., from about −0.5° C. to less than about +0.5° C.; or from about −0.3° C. to about +0.3° C.
The term “core body temperature” as used herein, means the temperature measured in the intraperitoneal cavity.

CYP2C9 = biological target: T2, CYP2C9 (Homo sapiens, UniProt P11712); experiment: CYP2C9 inhibition assay; type: in vitro ADME; conditions: pH 7.4, probe Luciferin-H (100 μM final), human liver microsomes, substrate Luciferin-H, read-out: CYP2C9 % inh @ 2.2 μM
T2 construct: human liver microsomes (BD Gentest); tissue BD Gentest; host or cells: human liver microsomes
T2 sequence (P11712 whole entry): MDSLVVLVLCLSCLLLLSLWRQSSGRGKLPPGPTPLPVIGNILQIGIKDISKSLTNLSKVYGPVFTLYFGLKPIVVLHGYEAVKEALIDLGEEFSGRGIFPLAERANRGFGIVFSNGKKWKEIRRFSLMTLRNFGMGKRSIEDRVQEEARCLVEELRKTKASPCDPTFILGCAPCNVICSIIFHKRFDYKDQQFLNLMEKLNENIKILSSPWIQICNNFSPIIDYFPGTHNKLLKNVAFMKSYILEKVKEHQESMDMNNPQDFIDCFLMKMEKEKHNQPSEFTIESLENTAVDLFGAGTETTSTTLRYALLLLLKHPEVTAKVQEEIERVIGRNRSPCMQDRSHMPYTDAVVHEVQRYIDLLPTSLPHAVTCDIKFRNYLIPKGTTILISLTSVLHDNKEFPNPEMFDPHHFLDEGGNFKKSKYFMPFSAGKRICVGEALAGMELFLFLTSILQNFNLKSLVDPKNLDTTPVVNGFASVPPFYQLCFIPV
Description: Stock solutions of test compounds were assayed in 96-well format for their ability to inhibit CYP2C9, CYP2D6, or CYP3A4 mediated metabolism of test substrates. Luciferin-H was used as the substrate for CYP2C9; 3-[2-(N,N-diethyl-N-methylammonium)ethyl]-7-methoxy-4-methylcoumarin (AMMC) was used as the substrate for CYP2D6; 7-benzyloxyquiniline (BZQ) was used as the substrate for CYP3A4. For each subtype, positive controls (sulphaphenazole in the case of CYP2C9; quinidine in the case of CYP2D6, ketoconazole in the case of CYP3A4) were used to validate assay results run in duplicate.
Pre-Incubation Mixture Preparation for CYP2C9 and CYP2D6: A pre-incubation mixture was prepared by combining 100 mM phosphate buffer (9.12 mL; pH 7.4), human liver microsomes (BD Gentest, 240 itt; final concentration: 0.4 mg/mL), and 10 mM nicotinamide adenine dinucleotide phosphate in 65.4 mM MgCl2 hexahydrate (120 μL; final concentration: 125 μM and 818 μM, respectively). To this was mixture is added a ‘regeneration’ mixture (120 μL) of 333 mM glucose-6-phosphate and 40 U/mL glucose-6-phosphate dehydrogenase in 5 mM sodium citrate (final concentration: 4 mM, 0.5 U/mL, and 0.06 mM, respectively).
Substrate Mixture Preparation for CYP2C9: To a solution of 25 mM phosphate buffer, (2.16 mL, pH 7.4) was added 5 mM Luciferin-H (Promega P450 Glo Assay V8792, 240 μL; final solution concentration 0.5 mM, final assay concentration 100 μM).
CYP2C9 Inhibiton Assay: To each well in the assay plate containing varying concentrations of test compound or control compound in DMSO (10 μL) Pre-Incubation Mixture (40 itt) was added to the wells and the assay plate was pre-incubated for 10 minutes at 37° C., with shaking or rocking. CYP2C9 Substrate Mixture (10 μL) was added to all wells and the assay plate was incubated for an additional 25 minutes at 37° C., with shaking or rocking. Final DMSO concentration was 1%. Luciferin-H detection reagent (Promega kit V8792, 50 μL) was added to all wells. The plate was then vortexed at ambient temperature for between 20 minutes and 2 hours, and the luminescence of each well was then read and recorded.

T1 sequence (Q8NER1 whole entry): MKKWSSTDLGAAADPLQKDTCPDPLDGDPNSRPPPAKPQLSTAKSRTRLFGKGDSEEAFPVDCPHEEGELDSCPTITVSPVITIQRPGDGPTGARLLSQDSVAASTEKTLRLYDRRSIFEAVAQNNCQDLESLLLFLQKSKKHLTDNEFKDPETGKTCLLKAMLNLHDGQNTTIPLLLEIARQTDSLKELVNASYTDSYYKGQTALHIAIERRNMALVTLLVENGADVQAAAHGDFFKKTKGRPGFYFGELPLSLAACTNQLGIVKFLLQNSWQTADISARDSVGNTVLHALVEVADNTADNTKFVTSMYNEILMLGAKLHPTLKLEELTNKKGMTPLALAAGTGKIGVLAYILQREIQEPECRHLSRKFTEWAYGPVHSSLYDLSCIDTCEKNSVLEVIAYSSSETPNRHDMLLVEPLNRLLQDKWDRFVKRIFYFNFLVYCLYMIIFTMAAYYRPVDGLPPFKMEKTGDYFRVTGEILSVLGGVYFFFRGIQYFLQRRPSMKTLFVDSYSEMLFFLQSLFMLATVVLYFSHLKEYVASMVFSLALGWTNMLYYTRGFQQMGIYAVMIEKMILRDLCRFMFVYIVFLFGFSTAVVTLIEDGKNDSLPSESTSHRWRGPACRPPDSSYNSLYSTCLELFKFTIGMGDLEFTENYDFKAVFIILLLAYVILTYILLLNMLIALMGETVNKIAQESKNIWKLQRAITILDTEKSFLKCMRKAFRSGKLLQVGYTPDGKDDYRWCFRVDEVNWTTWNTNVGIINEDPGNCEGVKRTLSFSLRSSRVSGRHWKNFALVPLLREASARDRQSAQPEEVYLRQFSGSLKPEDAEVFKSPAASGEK

SMILES	IC50 [1] [nM]	inhibition at 25 min, 2.2 µM (CYP2C9) [%]	Δ Temp (° C.) [2] [°C]
Cn1ncc2c(NC(=O)N[C@@H]3CC4(CCC4)Oc4ccc(F)cc43)cccc21 [Example 7, N-[(4R)-6-fluoro-3,3′,4,4′-tetrahydro-2′H-spiro[chromene-2,1′-cyclobutan]-4-yl]-N′-(1-methyl-1H-indazol-4-yl)urea]	78		0.1
CC1(C)C[C@@H](NC(=O)Nc2cccc3[nH]ncc23)c2ccc(C(F)(F)F)cc2O1 [Example 41, N-[(4R)-2,2-dimethyl-7-(trifluoromethyl)-3,4-dihydro-2H-chromen-4-yl]-N′-1H-indazol-4-ylurea]	16		−2.5
CCC1(CC)C[C@@H](NC(=O)Nc2cccc3c2cnn3C)c2cccc(F)c2O1 [Example 50, N-[(4R)-2,2-diethyl-8-fluoro-3,4-dihydro-2H-chromen-4-yl]-N′-(1-methyl-1H-indazol-4-yl)urea]	35		0.1
CCCC1(CCC)C[C@@H](NC(=O)Nc2cccc3c2cnn3C)c2cccc(F)c2O1 [Example 67, N-[(4R)-8-fluoro-2,2-dipropyl-3,4-dihydro-2H-chromen-4-yl]-N′-(1-methyl-1H-indazol-4-yl)urea]	18		−0.2
CC1(C)C[C@@H](NC(=O)Nc2cccc3cnc(N)cc23)c2ccc(F)cc2O1 [Example 106, N-(3-aminoisoquinolin-5-yl)-N′-[(4R)-7-fluoro-2,2-dimethyl-3,4-dihydro-2H-chromen-4-yl]urea]	21	13	0.3

Continued by falling IC50 [1], values first:

IC50 [1] [nM]	inhibition at 25 min, 2.2 µM (CYP2C9) [%]	SMILES	Δ Temp (° C.) [2] [°C]
76		O=C(Nc1cccc2[nH]ncc12)N[C@@H]1CC2(CCC2)Oc2ccc(F)cc21 [Example 8, N-[(4R)-6-fluoro-3,3′,4,4′-tetrahydro-2′H-spiro[chromene-2,1′-cyclobutan]-4-yl]-N′-1H-indazol-4-ylurea]	0.1
28		O=C(Nc1cccc2c1C[C@H](O)CC2)N[C@@H]1CC2(CCC2)Oc2ccc(F)cc21 [Example 6, N-[(4R)-6-fluoro-3,3′,4,4′-tetrahydro-2′H-spiro[chromene-2,1′-cyclobutan]-4-yl]-N′-[(7R)-7-hydroxy-5,6,7,8-tetrahydronaphthalen-1-yl]urea]	0.2
19		CCC1(CC)C[C@@H](NC(=O)Nc2cccc3[nH]ncc23)c2cc(F)ccc2O1 [Example 58, N-[(4R)-2,2-diethyl-6-fluoro-3,4-dihydro-2H-chromen-4-yl]-N′-1H-indazol-4-ylurea]	0.3
10		CCC1(CC)C[C@@H](NC(=O)Nc2cccc3c(C)nccc23)c2cc(F)ccc2O1 [Example 86, N-[(4R)-2,2-diethyl-6-fluoro-3,4-dihydro-2H-chromen-4-yl]-N′-(1-methylisoquinolin-5-yl)urea]	−1.7
9		Cn1ncc2c(NC(=O)N[C@@H]3CC(CF)(CF)Oc4c(OC(F)(F)F)cccc43)cccc21 [Example 88, N-[(4R)-2,2-bis(fluoromethyl)-8-(trifluoromethoxy)-3,4-dihydro-2H-chromen-4-yl]-N′-(1-methyl-1H-indazol-4-yl)urea]	−0.3
5		O=C(Nc1cccc2[nH]ncc12)N[C@@H]1CCOc2c(OC(F)(F)F)cccc21 [Example 70, N-1H-indazol-4-yl-N′-[(4R)-8-(trifluoromethoxy)-3,4-dihydro-2H-chromen-4-yl]urea]	0.3
